In patent US4510136A (priority 1983, dated 1985):

How the values were obtained:
[1] = system: Puccinia recondita var. tritici; assay: Wheat leaf rust control on sprayed wheat seedlings (Example 79); format: in vivo; details: Puccinia recondita, 168 h; 100 ppm spray, day before inoculation
Outline: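 Disease was scored as leaf rust pustules 7 days after a 24 h, 20° saturated-humidity incubation of seedlings inoculated with P. recondita var. tritici spores. Inoculation followed by one day a run-off spray of 100 ppm compound in water containing 6% acetone and 250 ppm TREM 014.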

Erysiphe cichoracearum = assay: Cucumber powdery mildew control on sprayed cucumber seedlings (Example 80); format: in vivo; details: Golovinomyces cichoracearum, 168 h, 100 ppm spray, day before inoculation
Erysiphe graminis = assay: Barley powdery mildew control on sprayed barley seedlings (Example 81); format: in vivo; details: Blumeria graminis, 168 h; 100 ppm spray, day before inoculation
Outline: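 Compounds at 100 ppm in water with 6% acetone and 250 ppm surfactant were sprayed to run-off on barley seedlings. Plants were inoculated with Erysiphe graminis spores the next day. Disease was rated after 7 days in a growth room.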

Venturia inaequalis = assay: Apple scab control on sprayed apple seedlings (Example 82); format: in vivo; details: Venturia inaequalis, 100 ppm spray, day before inoculation
Helminthosporium maydis = assay: Southern corn leaf blight control on sprayed corn seedlings (Example 83); format: in vivo; details: Bipolaris maydis, 192 h, 100 ppm spray, day before inoculation
Outline: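 Corn seedlings were sprayed to run-off with 100 ppm suspensions (6% acetone, 250 ppm TREM 014) and spore-inoculated the following day. Disease and growth reduction were rated after 24 h saturated humidity at 20° plus 7 days in a growth room.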

Cercospora arachidicola = assay: Peanut early leafspot control on sprayed peanut seedlings (Example 84); format: in vivo; details: Mycosphaerella arachidis, 360 h, 100 ppm spray, day before inoculation; read-out: % Control Peanut Easly Leafspot
Monilinia fructicola = assay: Stone fruit brown rot control on dipped canned peach halves (Example 86); details: 120 h, 100 ppm dip, percent growth inhibition of colonies after five days
Outline: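 Canned peach halves were dipped 3 min in a 100 ppm compound suspension (5% acetone, 700 ppm TREM 014 surfactant in water) and air-dried. Each was inoculated with two Monilinia fructicola mycelium pieces and incubated 5 days in sterile containers. Colony radii were measured, and percent control was expressed as growth inhibition versus untreated peaches.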

Rhizoctonia solani = assay: Rice sheath blight control on sprayed rice seedlings (Example 87); format: in vivo; details: Rhizoctonia solani, 168 h, 100 ppm spray, day before inoculation
Outline: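 Disease ratings followed 7 days' growth-room incubation of seedlings given a bran/R. solani mycelium inoculum. Inoculation took place one day after spraying to run-off. The spray was a 100 ppm compound suspension in water containing 6% acetone and 250 ppm TREM 014.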

Pyricularia oryzae = assay: whole plant or invertebrate; format: in vivo; details: Pyricularia oryzae, 168 h, read-out: % Control of Rice Blast, 100 ppm spray, day before inoculation
Phytophthora infestans = assay: whole plant or invertebrate; format: in vivo; details: Phytophthora infestans, in Solanum lycopersicum, 168 h, read-out: % Control of Tomato Late Blight, 100 ppm spray, day before inoculation
5 Phytophthora species = format: cell-based; details: 200.0 ppm in V-8 agar, 22° C., 6 days
Pythium aphanadermatum [2] = assay: Pythium control on cotton, seed coating (Example 91); format: in vivo; details: 168 h; for pest or weed control at 2 g/kg seed: 2 gm/kg seed
Outline: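 Cotton seeds coated with formulated compound at 2 gm/kg seed, air dried, and planted in soil amended with Pythium aphanadermatum, sand and corn meal. Held 1 week at room temperature before disease rating.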

cucumber seedlings = assay: Phytotoxicity on cucumber seedlings (Example 80); format: in vivo; parameters: key: G = growth reduction; H = hormonal effects; details: 100 ppm spray
Outline: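 Disease was rated 7 days after inoculation with powdery mildew spores, which followed one day after a run-off spray of 100 ppm compound in water with 6% acetone and 250 ppm TREM 014. Growth reduction or hormonal effects on the seedlings were recorded as phytotoxicity.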

bean seedlings = assay: Phytotoxicity on bean seedlings (Example 85); format: in vivo; parameters: key: G = growth reduction; H = hormonal effects; details: 80 ppm spray
Pythium aphanadermatum [3] = assay: Pythium control on corn, seed coating (Example 92); format: in vivo; details: 504 h, 2 gm/kg seed
Outline: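 Formulated compounds were coated onto corn seeds at 2 gm/kg seed, air-dried and sown in soil infested with Pythium aphanadermatum at a rate lethal to most untreated seeds. Seeds were held 2 weeks at 49° F, then 1 week at 70° F, before disease rating.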

corn seedlings = assay: Phytotoxicity on corn seedlings (Example 83); format: in vivo; parameters: key: G = growth reduction; H = hormonal effects; details: 100 ppm spray
Method: The compounds of the previous examples were again dissolved in acetone in an amount equal to 6% of the final volume and then suspended at a concentration of 100 ppm in purified water containing 250 ppm of the surfactant TREM 014 (polyhydric alcohol esters). These suspensions were sprayed to the point of run-off on corn seedlings. The following day, the plants were inoculated with a spore suspension of Helminthosporium maydis, causal agent of southern corn leaf blight, and incubated in a saturated humidity chamber at 20° for 24 hours and then in a growth room for an additional 7 days, when disease ratings were made. Treated plants from successful treatments had few or no lesions while the untreated plants had numerous lesions on each leaf. Phytotoxicity expressed as growth reduction was observed on some of the plants in association with disease control.

SMILES	pest or weed control at 100 ppm [1]	pest or weed control at 100 ppm (Erysiphe cichoracearum)	pest or weed control at 100 ppm (Erysiphe graminis)	pest or weed control at 100 ppm (Venturia inaequalis)	pest or weed control at 100 ppm (Helminthosporium maydis)	pest or weed control at 100 ppm (Cercospora arachidicola)	inhibition of growth at 100 µg/mL (Monilinia fructicola)	pest or weed control at 100 ppm (Rhizoctonia solani)	pest or weed control at 100 ppm (Pyricularia oryzae)	pest or weed control at 100 ppm (Phytophthora infestans)	No. of 5 Phytophthora species controlled in vitro (5 Phytophthora species)	pest or weed control at 2 g/kg seed (Pythium aphanadermatum [2])	Phytotoxicity on cucumber (cucumber seedlings)	Phytotoxicity on bean (bean seedlings)	pest or weed control at 0.5 g/kg seed (Pythium aphanadermatum [2]; 0.5 gm/kg seed)	pest or weed control at 2 g/kg seed (Pythium aphanadermatum [3])	Phytotoxicity on corn (corn seedlings)
C[Si](C)(Cn1cncn1)c1ccc(Cl)cc1Cl [(2,4-Dichlorophenyl)dimethyl(1H-1,2,4-triazol-1-ylmethyl)silane]	90%	100%	100%	100%	90%	100%	100%	0%	0%	0%	0	0%	H	G	–	–	–
C[Si](C)(Cn1cncn1)c1ccc(Cl)cc1 [(4-Chlorophenyl)dimethyl(1H-1,2,4-triazol-1-ylmethyl)silane]	100%	100%	–	100%	0%	90%	–	–	0%	0%	–	–	–	–	53%	8%	G
C[Si](Cn1cncn1)(c1ccc(Cl)cc1)c1ccc(Cl)cc1 [bis(4-Chlorophenyl)methyl(1H,-1,2,4-triazol-1-ylmethyl)silane]	90%	100%	100%	100%	80%	100%	95%	0%	90%	0%	0	0%	–	G	–	–	–
